Measured values: BindingDB's records for doi:10.1111/cbdd.12609 (Tehran University of Medical Sciences, 2015)
pIC50: −log10 of the molar value.

Tests used:
[1] = target: Carboxylic ester hydrolase (Equus caballus, UniProt Q9N1N9); test: AChE and BChE Inhibition Assay; details: pH 8; 25 °C
Protocol: (§1) To evaluate in vitro AChE activity, modified Ellman's method was performed using a 96-well plate reader (BioTek ELx808, Highland Park, IL, USA). Each well contained 50 µL potassium phosphate buffer (KH2PO4/K2HPO4, 0.1 M, pH 8), 25 µL sample dissolved in 50% methanol and 50% DMSO, and 25 µL enzyme (final concentration 0.22 U/mL in buffer). They were preincubated for 20 min at room temperature, and then, 125 µL DTNB (3 mM in buffer) was added. […] The IC50 values were determined graphically from inhibition curves (log inhibitor concentration versus percent of inhibition). A control experiment was performed under the same conditions without inhibitor and the blank contained buffer, DMSO, DTNB, and substrate. The described method was also used for BChE inhibition assa

Acetylcholinesterase = Acetylcholinesterase (Electrophorus electricus, UniProt O42275); test: AChE and BChE Inhibition Assay; details: pH 8; 25 °C
Acetylcholinesterase, sequence (O42275 whole entry): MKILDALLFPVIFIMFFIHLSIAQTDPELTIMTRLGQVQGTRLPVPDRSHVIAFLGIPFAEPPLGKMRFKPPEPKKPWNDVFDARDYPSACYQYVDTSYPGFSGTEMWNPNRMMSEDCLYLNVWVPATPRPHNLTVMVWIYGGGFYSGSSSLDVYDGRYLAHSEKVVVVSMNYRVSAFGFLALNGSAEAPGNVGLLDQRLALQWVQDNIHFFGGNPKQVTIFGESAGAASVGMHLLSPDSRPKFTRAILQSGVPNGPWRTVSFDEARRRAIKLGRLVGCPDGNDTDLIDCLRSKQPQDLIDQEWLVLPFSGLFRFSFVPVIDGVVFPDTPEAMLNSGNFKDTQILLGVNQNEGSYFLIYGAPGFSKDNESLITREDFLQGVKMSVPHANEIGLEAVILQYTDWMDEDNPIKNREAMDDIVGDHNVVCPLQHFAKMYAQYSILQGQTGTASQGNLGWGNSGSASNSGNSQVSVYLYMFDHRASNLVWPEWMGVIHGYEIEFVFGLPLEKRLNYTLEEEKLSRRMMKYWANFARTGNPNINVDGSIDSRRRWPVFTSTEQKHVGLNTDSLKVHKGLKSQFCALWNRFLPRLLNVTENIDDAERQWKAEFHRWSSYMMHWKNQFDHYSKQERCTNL
Protocol: as §1

Carboxylic ester hydrolase, sequence (Q9N1N9 whole entry): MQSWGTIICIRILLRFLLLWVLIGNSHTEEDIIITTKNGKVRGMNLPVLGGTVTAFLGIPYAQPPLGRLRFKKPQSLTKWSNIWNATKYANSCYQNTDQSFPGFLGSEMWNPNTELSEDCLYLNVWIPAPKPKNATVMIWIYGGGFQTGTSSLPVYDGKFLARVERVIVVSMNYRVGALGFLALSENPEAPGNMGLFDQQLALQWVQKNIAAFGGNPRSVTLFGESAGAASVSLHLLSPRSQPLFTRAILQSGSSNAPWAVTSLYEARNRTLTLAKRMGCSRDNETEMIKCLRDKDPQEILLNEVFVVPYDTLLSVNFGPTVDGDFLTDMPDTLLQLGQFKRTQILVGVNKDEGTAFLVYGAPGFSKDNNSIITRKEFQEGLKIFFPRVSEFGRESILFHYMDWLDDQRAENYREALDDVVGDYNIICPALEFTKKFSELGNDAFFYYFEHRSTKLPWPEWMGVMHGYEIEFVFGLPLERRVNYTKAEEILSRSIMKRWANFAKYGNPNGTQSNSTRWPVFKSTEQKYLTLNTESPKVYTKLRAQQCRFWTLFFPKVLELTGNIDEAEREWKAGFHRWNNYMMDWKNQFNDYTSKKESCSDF

Row | SMILES | pIC50 [1] | pIC50 (Acetylcholinesterase)
1 | O=c1c2ccccc2n(Cc2cn(Cc3nc(-c4ccc(Cl)cc4)no3)nn2)c2ccc(Br)cc12 [2-Bromo-10-((1-((3-(4-chlorophenyl)-1,2,4-oxadiazol-5-yl)methyl)-1H-1,2,3-triazol-4-yl)methyl)acridin-9(10H)-one (10p)] | < 4.00 | < 4.00
2 | COc1ccc(-c2noc(Cn3cc(Cn4c5ccccc5c(=O)c5cc(Br)ccc54)nn3)n2)cc1 [2-Bromo-10-((1-((3-(4-methoxyphenyl)-1,2,4-oxadiazol-5-yl)methyl)-1H-1,2,3-triazol-4-yl)methyl)acridin-9(10H)-one (10o)] | < 4.00 | < 4.00
3 | O=c1c2ccccc2n(Cc2cn(Cc3nc(-c4ccc(Cl)cc4)no3)nn2)c2ccc(Cl)cc12 [2-Chloro-10-((1-((3-(4-chlorophenyl)-1,2,4-oxadiazol-5-yl)methyl)-1H-1,2,3-triazol-4-yl)methyl)acridin-9(10H)-one (10n)] | < 4.00 | 4.35
4 | COc1ccc(-c2noc(Cn3cc(Cn4c5ccccc5c(=O)c5cc(Cl)ccc54)nn3)n2)cc1 [2-Chloro-10-((1-((3-(4-methoxyphenyl)-1,2,4-oxadiazol-5-yl)methyl)-1H-1,2,3-triazol-4-yl)methyl)acridin-9(10H)-one (10m)] | < 4.00 | < 4.00
5 | Cc1ccc(-c2noc(Cn3cc(Cn4c5ccccc5c(=O)c5cc(Cl)ccc54)nn3)n2)cc1 [2-Chloro-10-((1-((3-(p-tolyl)-1,2,4-oxadiazol-5-yl)methyl)-1H-1,2,3-triazol-4-yl)methyl)acridin-9(10H)-one (10l)] | < 4.00 | < 4.00
6 | COc1ccc(-c2noc(Cn3cc(Cn4c5ccccc5c(=O)c5cc(OC)ccc54)nn3)n2)cc1 [2-Methoxy-10-((1-((3-(4-methoxyphenyl)-1,2,4-oxadiazol-5-yl)methyl)-1H-1,2,3-triazol-4-yl)methyl)acridin-9(10H)-one (10j)] | < 4.00 | < 4.00
7 | COc1ccc2c(c1)c(=O)c1ccccc1n2Cc1cn(Cc2nc(-c3ccc(C)cc3)no2)nn1 [2-Methoxy-10-((1-((3-(p-tolyl)-1,2,4-oxadiazol-5-yl)methyl)-1H-1,2,3-triazol-4-yl)methyl)acridin-9(10H)-one (10i)] | < 4.00 | < 4.00
8 | COc1ccc(-c2noc(Cn3cc(Cn4c5ccccc5c(=O)c5cccc(Cl)c54)nn3)n2)cc1 [4-Chloro-10-((1-((3-(4-methoxyphenyl)-1,2,4-oxadiazol-5-yl)methyl)-1H-1,2,3-triazol-4-yl)methyl)acridin-9(10H)-one (10g)] | < 4.00 | < 4.00
9 | COc1ccc(-c2noc(Cn3cc(Cn4c5ccccc5c(=O)c5cccc(OC)c54)nn3)n2)cc1 [4-Methoxy-10-((1-((3-(4-methoxyphenyl)-1,2,4-oxadiazol-5-yl)methyl)-1H-1,2,3-triazol-4-yl)methyl)acridin-9(10H)-one (10f)] | < 4.00 | < 4.00
10 | COc1cccc2c(=O)c3ccccc3n(Cc3cn(Cc4nc(-c5ccc(C)cc5)no4)nn3)c12 [4-Methoxy-10-((1-((3-(p-tolyl)-1,2,4-oxadiazol-5-yl)methyl)-1H-1,2,3-triazol-4-yl)methyl)acridin-9(10H)-one (10e)] | < 4.00 | < 4.00
11 | O=c1c2ccccc2n(Cc2cn(Cc3nc(-c4ccc(Br)cc4)no3)nn2)c2ccccc12 [10-((1-((3-(4-Bromophenyl)-1,2,4-oxadiazol-5-yl)methyl)-1H-1,2,3-triazol-4-yl)methyl)acridin-9(10H)-one (10d)] | < 4.00 | 4.17
12 | COc1ccc2c(c1)c(=O)c1ccccc1n2Cc1cn(Cc2nc(-c3ccc(Cl)cc3)no2)nn1 [10-((1-((3-(4-Chlorophenyl)-1,2,4-oxadiazol-5-yl)methyl)-1H-1,2,3-triazol-4-yl)methyl)-2-methoxyacridin-9(10H)-one (10k)] | < 4.00 | 4.11
13 | Cc1ccc2c(c1)c(=O)c1ccccc1n2Cc1cn(Cc2nc(-c3ccc(Cl)cc3)no2)nn1 [10-((1-((3-(4-Chlorophenyl)-1,2,4-oxadiazol-5-yl)methyl)-1H-1,2,3-triazol-4-yl)methyl)-2-methylacridin-9(10H)-one (10h)] | < 4.00 | < 4.00
14 | O=c1c2ccccc2n(Cc2cn(Cc3nc(-c4ccc(Cl)cc4)no3)nn2)c2ccccc12 [10-((1-((3-(4-Chlorophenyl)-1,2,4-oxadiazol-5-yl)methyl)-1H-1,2,3-triazol-4-yl)methyl)acridin-9(10H)-one (10c)] | 4.05 | 4.61
15 | COc1ccc(-c2noc(Cn3cc(Cn4c5ccccc5c(=O)c5ccccc54)nn3)n2)cc1 [10-((1-((3-(4-Methoxyphenyl)-1,2,4-oxadiazol-5-yl)methyl)-1H-1,2,3-triazol-4-yl)methyl)acridin-9(10H)-one (10b)] | < 4.00 | 4.94
16 | Cc1ccc(-c2noc(Cn3cc(Cn4c5ccccc5c(=O)c5ccccc54)nn3)n2)cc1 [10-((1-((3-(p-Tolyl)-1,2,4-oxadiazol-5-yl)methyl)-1H-1,2,3-triazol-4-yl)methyl)acridin-9(10H)-one (10a)] | < 4.00 | 4.31
